Laboratory results from patent US20190328828A1, “PHARMACEUTICAL COMPOSITION, PROCESS FOR PRODUCING THE SAME, USE OF A PEPTIDE, USE OF A PHARMACEUTICAL COMPOSITION AND METHOD FOR TREATING DISEASES ASSOCIATED WITH INTRAOCULAR HYPERTENSION OR GLAUCOMA” (UNIAO QUIMICA FARMACEUTICA NACIONAL S/A, priority 2017, published 2019).

Tests used:
[1] = Long-term and accelerated stability study of raw material; assay type: physicochemical
Protocol: Stability is defined as the time during which pharmaceutical expertise or even raw material considered alone is maintained within specified limits and throughout the period of storage and use, the same conditions and characteristics that had upon the time of their manufacture.
Stability study was carried out in two conditions, the condition A being at 5° C.±3° C. with no humidity and condition B 25° C.±2° C. with the relative humidity of 60%±5%.

rats = conditions: free (non-encapsulated) peptide, RVLB microinjection, 25-50 ng, previous studies; cited from earlier work
[2] = Protocol: The absorption and biological stability tests were performed with solutions of the peptide-cyclodextrin inclusion compound. To carry out the experiments, 12 normal Wistar rats were used, which had previously cannulated the left femoral artery. […] Four blood draws (1 mL) were carried out, being the first prior to gavage, and the three others within 2, 6 and 24 hours after gavage
ACE = ACE (Homo sapiens, UniProt P12821); conditions: read-out: IC50 for inhibiting ACE; cited from earlier work
ganglion cells = conditions: rat retina explant model, White et al (2015); cited from earlier work
patients = patients treated chronically; cited from earlier work

Sequence of ACE (P12821 30-1306, species assumed): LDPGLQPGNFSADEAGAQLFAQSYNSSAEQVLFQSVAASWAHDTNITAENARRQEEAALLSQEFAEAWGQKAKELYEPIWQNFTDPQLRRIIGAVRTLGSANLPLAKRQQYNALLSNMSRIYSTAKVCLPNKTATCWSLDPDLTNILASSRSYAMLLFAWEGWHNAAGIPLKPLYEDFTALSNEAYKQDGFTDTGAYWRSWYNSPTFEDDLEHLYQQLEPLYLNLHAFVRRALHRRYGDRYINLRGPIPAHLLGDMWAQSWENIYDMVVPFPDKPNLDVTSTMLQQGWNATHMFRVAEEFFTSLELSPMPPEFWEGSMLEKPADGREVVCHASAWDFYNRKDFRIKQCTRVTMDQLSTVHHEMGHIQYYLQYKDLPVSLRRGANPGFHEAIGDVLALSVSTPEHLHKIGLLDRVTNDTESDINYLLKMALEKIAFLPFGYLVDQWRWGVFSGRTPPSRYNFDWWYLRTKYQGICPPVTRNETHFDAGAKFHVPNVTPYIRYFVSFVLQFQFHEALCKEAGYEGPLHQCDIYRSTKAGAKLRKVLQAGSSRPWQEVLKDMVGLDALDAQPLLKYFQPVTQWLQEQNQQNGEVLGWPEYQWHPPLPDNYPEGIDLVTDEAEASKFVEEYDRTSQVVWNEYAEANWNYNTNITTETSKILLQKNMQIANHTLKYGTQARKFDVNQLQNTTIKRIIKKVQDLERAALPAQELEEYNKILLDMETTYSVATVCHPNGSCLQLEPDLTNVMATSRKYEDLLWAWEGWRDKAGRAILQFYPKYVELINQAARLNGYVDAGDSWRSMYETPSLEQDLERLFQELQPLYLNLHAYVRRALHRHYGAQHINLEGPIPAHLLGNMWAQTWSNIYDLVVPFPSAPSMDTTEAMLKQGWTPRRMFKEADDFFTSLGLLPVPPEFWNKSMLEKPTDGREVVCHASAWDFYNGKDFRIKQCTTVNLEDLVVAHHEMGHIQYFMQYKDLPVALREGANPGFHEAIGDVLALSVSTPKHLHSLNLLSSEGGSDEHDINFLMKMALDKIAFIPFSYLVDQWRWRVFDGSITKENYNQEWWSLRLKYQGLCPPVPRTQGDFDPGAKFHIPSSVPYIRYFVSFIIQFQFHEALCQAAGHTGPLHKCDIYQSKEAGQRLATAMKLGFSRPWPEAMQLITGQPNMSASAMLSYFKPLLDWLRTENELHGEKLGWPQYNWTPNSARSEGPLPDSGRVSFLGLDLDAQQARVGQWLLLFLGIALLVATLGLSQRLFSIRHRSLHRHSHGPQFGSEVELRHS

With `CC[C@H](C)[C@H](NC(=O)[C@H](Cc1ccc(O)cc1)NC(=O)[C@@H](NC(=O)[C@H](CCCNC(=N)N)NC(=O)[C@@H](N)CC(=O)O)C(C)C)C(=O)N[C@@H](Cc1c[nH]cn1)C(=O)N1CCC[C@H]1C(=O)O` [SEQ ID NO: 1, Asp-Arg-Val-Tyr-Ile-His-Pro] as the molecule, how does the “time for which the raw material is stable, long-term condition” value ([1]; 5° C.±3° C., no humidity) read?
Its value is 36 months.

What about the “time for which the raw material is stable, accelerated condition” value ([1]; 25° C.±2° C., 60% relative humidity) of the same molecule?
Its value is 6 months.

And the “duration of pressor effect” value (rats)?
Its value is “approximately 10 min”.

What about the “increase in arterial pressure” value (rats) of the same molecule?
The value was 15 mmHg.

And the “increase in plasma concentration, times less than with SEQ ID NO: 1 βcyclodextrin” value ([2]; 6 hours after gavage)?
Its value is “about 8 times”.

And the level at 6 h ([2]; rat, in vivo, po, 10 ug/50 ul)?
Its level at 6 h is 0.086 ± 0.013 ng/mL.

What about the IC50 (ACE) of the same molecule?
Its IC50 is roughly 1 µM.

Which “survival of ganglion cells” value (ganglion cells) does the source give for `CCCCC1=NC2(CCCC2)C(=O)N1Cc1ccc(-c2ccccc2-c2nnn[nH]2)cc1` [irbesartan] here?
The value was “doubled”.

For `CCC[C@H](N[C@@H](C)C(=O)N1[C@H](C(=O)O)C[C@@H]2CCCC[C@@H]21)C(=O)OCC` [perindopril], which “reduction of the risk of dementia” value (patients) is on record?
Its value is 34%.

With Angiotensin II as the molecule, how does the “reduction of survival of ganglion cells” value (ganglion cells) read?
The value was 40%.

With `CCOC(=O)[C@H](CCc1ccccc1)N[C@@H](C)C(=O)N1CCC[C@H]1C(=O)O` [enalapril] as the molecule, how does the “reduction of the risk of dementia” value (patients) read?
The value was 55%.
